Calls of active or inactive are those of the source. No cut-off for these calls is given here.
Legend:
[1] = Zinc ionophore activity assessed as uptake of zinc ions into liposomes by measuring increase in liposome-encapsulated FluoZin3-fluorescence at 10 uM measured after 1 hr in presence of ZnCl2 and TPEN by fluorescence analysis
[2] = Zinc ionophore activity assessed as uptake of zinc ions into liposomes by measuring increase in liposome-encapsulated FluoZin3-fluorescence at 10 uM measured after 1 hr in presence of ZnCl2 by fluorescence analysis relative to control
H9c2 [3] = assay: (§1) Inhibition of apoptosis in hypoxia/reoxygenation induced injury in rat H9c2 cells assessed as late necrotic cells at 10 uM treated after 8 hrs of hypoxia and before 2 hrs of reoxygenation period by AnnexinV-FITC/propidium iodide staining based flow cytometry analysis (reference value: 1.25%); assay type: functional; design: scale not given: the % may be the effect or the level left
H9c2 [4] = assay: Cardioprotective activity against hypoxia/reoxygenation-induced injury in rat H9c2 cells assessed as cell viability at 10 uM treated after 8 hrs of hypoxia and before 16 hrs of reoxygenation period by MTT assay; assay type: functional, cell-based
H9c2 [5] = assay: as §1, with “as” for “as late”, “period in presence of ZnCl2” for “period”; assay type: functional; design: scale not given: the % may be the effect or the level left
H9c2 [6] = assay: as §1, with “apoptotic” for “necrotic”, “period in presence of ZnCl2” for “period”, “7%)” for “1.25%)”; assay type: functional; design: scale not given: the % may be the effect or the level left
H9c2 [7] = assay: as §1, with “viable” for “late necrotic”, “period in presence of ZnCl2” for “period”, “55.35%)” for “1.25%)”; assay type: functional; conditions: read-out: Activity
H9c2 [8] = assay: Inhibition of apoptosis in hypoxia/reoxygenation induced injury in rat H9c2 cells assessed as caspase-3 activity at 10 uM treated after 8 hrs of hypoxia and before 16 hrs of reoxygenation period in presence of ZnCl2 (reference value: 187%); assay type: functional; design: scale not given: the % may be the effect or the level left
H9c2 [9] = assay: (§2) Inhibition of apoptosis in hypoxia/reoxygenation induced injury in rat H9c2 cells assessed as early apoptotic cells at 10 uM treated after 8 hrs of hypoxia and before 2 hrs of reoxygenation period by AnnexinV-FITC/propidium iodide staining based flow cytometry analysis (reference value: 36.45%); assay type: functional; design: scale not given: the % may be the effect or the level left
H9c2 [10] = assay: Cardioprotective activity in rat H9c2 cells assessed as reduction in hypoxia/reoxygenation-induced intracellular Zn2+ level depletion by measuring improvement in intracellular TSQ fluorescence intensity at 10 uM treated at the onset of 1 hr reoxygenation period in the presence of ZnCl2 by TSQ staining based fluorescence analysis relative to control; assay type: functional
H9c2 [11] = assay: as §2, with “period in presence of ZnCl2” for “period”; assay type: functional; design: scale not given: the % may be the effect or the level left
H9c2 [12] = assay: Cardioprotective activity against hypoxia/reoxygenation-induced injury in rat H9c2 cells assessed as cell viability at 10 uM treated after 8 hrs of hypoxia and before 16 hrs of reoxygenation period in presence of ZnCl2 by MTT assay; assay type: functional; conditions: read-out: Activity
H9c2 [13] = assay: Inhibition of apoptosis in hypoxia/reoxygenation induced injury in rat H9c2 cells assessed as viable cells at 10 uM treated after 8 hrs of hypoxia and before 2 hrs of reoxygenation period by AnnexinV-FITC/propidium iodide staining based flow cytometry analysis (reference value: 55.35%); assay type: functional; conditions: read-out: Activity
H9c2 [14] = assay: Inhibition of apoptosis in hypoxia/reoxygenation induced injury in rat H9c2 cells assessed as late apoptotic cells at 10 uM treated after 8 hrs of hypoxia and before 2 hrs of reoxygenation period by AnnexinV-FITC/propidium iodide staining based flow cytometry analysis (reference value: 7%); assay type: functional; design: scale not given: the % may be the effect or the level left

SMILES: Oc1c(I)cc(Cl)c2cccnc12
- Activity [1]: inactive
- fold change (FC) [2]: 40

SMILES: O=C(O[C@@H]1Cc2c(O)cc(O)cc2O[C@@H]1c1ccc(O)c(O)c1)c1cc(O)c(O)c(O)c1 [EPICATECHIN GALLATE]
- Activity (H9c2 [3]): 1.05%
- Activity (H9c2 [4]): inactive
- Activity (H9c2 [5]): 1.42%
- Activity (H9c2 [6]): 2.32%
- viability at 10 µM (H9c2 [7]): 73.5%
- Activity [1]: inactive
- Activity (H9c2 [8]): 139%
- Activity (H9c2 [9]): 37.4%
- fold change (FC) (H9c2 [10]): 2.1
- Activity (H9c2 [11]): 22.8%
- viability at 10 µM (H9c2 [12]): 60%
- fold change (FC) [2]: 16
- viability at 10 µM (H9c2 [13]): 54.2%
- Activity (H9c2 [14]): 7.32%

SMILES: Oc1cc(O)c2c(c1)O[C@H](c1cc(O)c(O)c(O)c1)[C@H](O)C2 [EPIGALLOCATECHIN]
- Activity (H9c2 [3]): 3.92%
- Activity (H9c2 [4]): inactive
- Activity (H9c2 [5]): 5.05%
- Activity (H9c2 [6]): 6.72%
- viability at 10 µM (H9c2 [7]): 61.8%
- Activity [1]: inactive
- Activity (H9c2 [8]): 158%
- Activity (H9c2 [9]): 44.27%
- fold change (FC) (H9c2 [10]): 1
- Activity (H9c2 [11]): 26.47%
- viability at 10 µM (H9c2 [12]): 52%
- fold change (FC) [2]: 8
- viability at 10 µM (H9c2 [13]): 47%
- Activity (H9c2 [14]): 4.77%

SMILES: O=C(O[C@@H]1Cc2c(O)cc(O)cc2O[C@@H]1c1cc(O)c(O)c(O)c1)c1cc(O)c(O)c(O)c1 [EPIGALOCATECHIN GALLATE]
- Activity (H9c2 [3]): 2.02%
- Activity (H9c2 [4]): inactive
- Activity (H9c2 [5]): 0.97%
- Activity (H9c2 [6]): 2.72%
- viability at 10 µM (H9c2 [7]): 80.1%
- Activity [1]: inactive
- Activity (H9c2 [8]): 112%
- Activity (H9c2 [9]): 37.4%
- fold change (FC) (H9c2 [10]): 4
- Activity (H9c2 [11]): 16.12%
- viability at 10 µM (H9c2 [12]): 78%
- fold change (FC) [2]: 28
- viability at 10 µM (H9c2 [13]): 52.5%
- Activity (H9c2 [14]): 8.12%

Source: ChEMBL document CHEMBL4837252, “Zinc ionophores isolated from Terminalia bellirica fruit rind extract protect against cardiomyocyte hypoxia/reoxygenation injury” (2021)
